The subject of one experiment is male Wistar rats. Description: Loss of the righting reflex (LRR) in rats. It is filed as in vivo, rat. The following applies: i.v. via tail vein, dose in the range of 10–100 mg/kg. The protocol:
The intrinsic efficacy of a compound was assessed by its ability to cause loss of the righting reflex (LRR) in rats, an effect associated with benzodiazepine full agonism.
Method: Subjects for these studies were male Wistar rats, weighing approximately 250–350 grams. To assess loss of righting reflex (LRR), animals were placed in plastic restrainers and test compounds were administered i.v. via the tail vain. Subjects were immediately removed from the restrainer and the time to onset of loss of righting reflex was recorded. LRR was defined as the loss of an animal's ability to right itself when placed in a supine position. […] Compounds producing LRR were evaluated by three measures: 1) Time to onset of LRR (as described above) 2) Time to recover from LRR. An animal met this criteria when able to right itself three consecutive times after losing its righting reflex 3) Total recovery time. Total recovery was measured by the animal's ability to walk without ataxia as well as its ability to pull itself up three consecutive times when suspended from a horizontal wire. […] The therapeutically useful dosage range for administration to mammals is 0.01 to 5.0 mg/kg of body weight.

The target in experiment [1] is benzodiazepine receptor (benzodiazepine site on the GABAA receptor complex). Nature of the experiment: Benzodiazepine radioligand (3H-flunitrazepam) binding assay. The following applies: read-out: Benzodiazepine receptor binding Ki; 3H-flunitrazepam, brain membrane homogenates, 90 minutes at 4° C.; tissue species of the tabulated values not stated.

For orientation: Ki means a measure of affinity in units of concentration, obtained from inhibition or displacement. Regarding `COC(=O)CC[C@@H]1N=C(c2ccccc2F)c2cc(Cl)ccc2-n2cncc21` [Example 1c-17], the “loss of righting reflex (LRR)” value in the experiment with male Wistar rats was “producing loss-of-righting”. Besides, in experiment [1], the Ki lay within 0.101 to 1 µM.

The values above are taken from patent US7160880B1, “Short-acting benzodiazepines” (CeNeS Limited, priority 1999, dated 2007).
